According to ChEMBL document CHEMBL5528056, “BAY-9835: Discovery of the First Orally Bioavailable ADAMTS7 Inhibitor” (J Med Chem, 2024):
pIC50: −log10 of the molar value. Values joined by “and” are separate entries in the source; they are usually repeats but may differ in a detail not shown here. Identical values can stand only once.

Experiments:
[1] = Clearance in iv-dosed Wistar rat measured after 24 hrs by HPLC-MS/MS analysis; type: ADME; settings: in vivo
[2] = Selectivity ratio of IC50 for MMP12 (unknown origin) to IC50 for ADAMTS7 (unknown origin)
[3] = molecular target: A disintegrin and metalloproteinase with thrombospondin motifs 7 (Homo sapiens, UniProt Q9UKP4); test: Inhibition of recombinant ADAMTS7 (unknown origin) using HiLyteFluor-488 DELSSMVLELRGLRT-K(QXL520)-E-NH2 as substrate incubated for 120 mins by FRET assay
A disintegrin and metalloproteinase with thrombospondin motifs 7, sequence (Q9UKP4 whole entry): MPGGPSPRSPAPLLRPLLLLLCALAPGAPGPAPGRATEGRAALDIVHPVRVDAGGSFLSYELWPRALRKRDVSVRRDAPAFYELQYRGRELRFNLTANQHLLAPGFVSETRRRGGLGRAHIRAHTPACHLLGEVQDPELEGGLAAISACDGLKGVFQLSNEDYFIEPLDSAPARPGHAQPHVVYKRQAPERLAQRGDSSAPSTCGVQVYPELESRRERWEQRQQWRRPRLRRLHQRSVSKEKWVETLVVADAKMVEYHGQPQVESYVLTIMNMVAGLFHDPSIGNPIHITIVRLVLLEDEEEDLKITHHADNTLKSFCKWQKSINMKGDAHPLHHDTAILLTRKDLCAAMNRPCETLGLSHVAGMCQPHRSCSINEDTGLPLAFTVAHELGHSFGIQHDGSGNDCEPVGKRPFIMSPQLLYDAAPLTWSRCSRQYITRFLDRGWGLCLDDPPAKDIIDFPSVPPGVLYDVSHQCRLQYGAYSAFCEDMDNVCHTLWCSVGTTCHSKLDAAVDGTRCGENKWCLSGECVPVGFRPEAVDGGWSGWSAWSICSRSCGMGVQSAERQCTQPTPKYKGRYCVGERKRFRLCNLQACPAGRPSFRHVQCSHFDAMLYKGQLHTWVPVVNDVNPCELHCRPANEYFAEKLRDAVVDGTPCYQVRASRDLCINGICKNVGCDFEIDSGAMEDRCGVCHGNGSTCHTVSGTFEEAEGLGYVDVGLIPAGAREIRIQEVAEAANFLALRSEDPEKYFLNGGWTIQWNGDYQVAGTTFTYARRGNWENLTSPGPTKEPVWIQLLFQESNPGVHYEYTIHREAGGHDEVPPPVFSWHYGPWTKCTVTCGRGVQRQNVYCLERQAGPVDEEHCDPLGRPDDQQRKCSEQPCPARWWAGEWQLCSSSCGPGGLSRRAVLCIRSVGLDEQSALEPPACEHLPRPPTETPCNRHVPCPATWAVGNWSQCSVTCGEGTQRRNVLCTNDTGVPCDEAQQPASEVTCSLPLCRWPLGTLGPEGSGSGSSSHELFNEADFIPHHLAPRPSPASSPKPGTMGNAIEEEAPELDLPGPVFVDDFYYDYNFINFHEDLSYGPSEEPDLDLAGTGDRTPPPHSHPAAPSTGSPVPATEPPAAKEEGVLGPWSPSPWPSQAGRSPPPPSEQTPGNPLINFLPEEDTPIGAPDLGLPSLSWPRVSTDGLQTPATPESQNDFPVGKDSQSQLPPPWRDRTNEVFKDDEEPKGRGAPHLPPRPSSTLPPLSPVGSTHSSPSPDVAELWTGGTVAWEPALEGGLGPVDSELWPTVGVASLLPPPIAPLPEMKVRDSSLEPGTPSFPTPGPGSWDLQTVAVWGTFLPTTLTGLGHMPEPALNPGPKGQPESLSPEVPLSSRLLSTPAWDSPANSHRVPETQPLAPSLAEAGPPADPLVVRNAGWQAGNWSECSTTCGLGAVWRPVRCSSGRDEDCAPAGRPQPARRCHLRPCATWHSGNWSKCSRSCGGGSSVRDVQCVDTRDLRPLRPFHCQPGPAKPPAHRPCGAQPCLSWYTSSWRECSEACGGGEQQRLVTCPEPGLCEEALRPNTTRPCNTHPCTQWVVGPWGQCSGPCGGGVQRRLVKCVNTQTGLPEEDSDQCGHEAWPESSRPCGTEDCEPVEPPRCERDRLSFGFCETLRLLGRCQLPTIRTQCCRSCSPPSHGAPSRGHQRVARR

[4] = Selectivity ratio of IC50 for ADAMTS12 (unknown origin) to IC50 for ADAMTS7 (unknown origin)
[5] = Oral bioavailability iv-dosed Wistar rat measured after 24 hrs by HPLC-MS/MS analysis; type: ADME, organism-based; settings: in vivo
[6] = Unbound plasma protein binding in iv-dosed Wistar rat measured after 24 hrs by HPLC-MS/MS analysis; type: ADME, cell-free
[7] = Selectivity ratio of IC50 for ADAMTS5 (unknown origin) to IC50 for ADAMTS7 (unknown origin)
[8] = Selectivity ratio of IC50 for MMP15 (unknown origin) to IC50 for ADAMTS7 (unknown origin)
[9] = Selectivity ratio of IC50 for ADAMTS4 (unknown origin) to IC50 for ADAMTS7 (unknown origin)
[10] = Selectivity ratio of IC50 for ADAM17 (unknown origin) to IC50 for ADAMTS7 (unknown origin)
[11] = Selectivity ratio of IC50 for MMP2 (unknown origin) to IC50 for ADAMTS7 (unknown origin)
[12] = molecular target: Cytochrome P450 3A4 (Homo sapiens, UniProt P08684); test: Induction of CYP3A4 in human hepatocytes assessed as threshold concentration incubated for 48 hrs by qPCR analysis; type: ADME, cell-based, Hepatocyte
Cytochrome P450 3A4, sequence (P08684 whole entry): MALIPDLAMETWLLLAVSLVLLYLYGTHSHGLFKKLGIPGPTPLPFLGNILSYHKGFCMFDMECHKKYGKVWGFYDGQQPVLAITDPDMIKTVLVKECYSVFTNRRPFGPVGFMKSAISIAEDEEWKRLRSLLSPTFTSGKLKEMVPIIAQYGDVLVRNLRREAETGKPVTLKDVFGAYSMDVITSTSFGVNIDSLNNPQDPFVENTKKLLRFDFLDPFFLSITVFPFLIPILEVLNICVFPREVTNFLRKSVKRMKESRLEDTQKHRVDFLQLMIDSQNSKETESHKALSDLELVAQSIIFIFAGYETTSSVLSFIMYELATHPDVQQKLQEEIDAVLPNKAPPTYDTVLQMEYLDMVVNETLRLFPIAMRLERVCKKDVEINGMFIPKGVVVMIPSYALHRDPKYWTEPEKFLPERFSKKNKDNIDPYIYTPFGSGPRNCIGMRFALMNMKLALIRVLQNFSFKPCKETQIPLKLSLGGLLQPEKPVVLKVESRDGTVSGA

[13] = AUC (infinity) in iv-dosed Wistar rat by HPLC-MS/MS analysis; type: ADME; settings: in vivo

SMILES	Ratio IC50 [2]	pIC50 [3]	other results
O=C1NC(=O)[C@](CNC(=O)c2ccccc2-c2ccc(C(F)(F)F)cc2)(C2CC2)N1	11	–	CL [1]: 1.7 mL/min/kg
Cc1ccc(-c2ccc(C(=O)NC[C@@]3(C4CC4)NC(=O)NC3=O)cc2)cc1	4.7 10^-4No_unit	6.24	–
O=C1NC(=O)[C@](CNC(=O)c2cnn(-c3ccccc3F)n2)(C2CC2)N1	0.4	–	–
O=C1NC(=O)C(CNC(=O)c2ccccc2-c2ccc(C(F)(F)F)cc2)(c2cscn2)N1 (centres undefined)	67	–	CL [1]: 23.3 mL/min/kg
O=C1NC(=O)C(CNC(=O)c2ccccc2-c2ccc(C(F)(F)F)cc2)(c2ccnn2CC(F)(F)F)N1 (centres undefined)	29	–	–
O=C1NC(=O)[C@](CNC(=O)c2cnn(-c3ccccc3)n2)(C2CC2)N1	–	7.21	CL [1]: 12 mL/min/kg; Ratio IC50 [4]: 0.2; F [5]: 74%; Fu [6]: 15%
Cn1nccc1[C@]1(CNC(=O)c2ccc(Cl)c(F)c2-c2ccc(C(F)(F)F)cc2)NC(=O)NC1=O	–	8.52	–
Cn1nccc1[C@]1(CNC(=O)c2ccc(F)cc2-c2ccc(C(F)(F)F)cc2)NC(=O)NC1=O	–	7.72	CL [1]: 15 mL/min/kg
O=C1NC(=O)[C@](CNC(=O)c2cnn(-c3cccc(Cl)c3)n2)(C2CC2)N1	0.1	–	–
Cn1nccc1[C@]1(CNC(=O)c2cc(F)ccc2-c2ccc(C(F)(F)F)cc2)NC(=O)NC1=O	–	7.72	CL [1]: 10 mL/min/kg
CCn1nccc1C1(CNC(=O)c2ccccc2-c2ccc(C(F)(F)F)cc2)NC(=O)NC1=O (centres undefined)	96	–	CL [1]: 17 mL/min/kg
O=C1NC(=O)[C@](CNC(=O)c2cnn(Cc3nccs3)n2)(C2CC2)N1	4.6	6.04	–
O=C1NC(=O)[C@](CNC(=O)c2cnn(-c3ccc(F)cc3)n2)(C2CC2)N1	–	–	Ratio IC50 [7]: 12700; Ratio IC50 [8]: 41700; Ratio IC50 [9]: > 20800; Ratio IC50 [10]: 863; Ratio IC50 [4]: 26
Cc1ccc(-c2ccccc2C(=O)NC[C@@]2(C3CC3)NC(=O)NC2=O)cc1	12 and 12.4	–	Ratio IC50 [7]: 213; Ratio IC50 [8]: 872; Ratio IC50 [9]: 115; Ratio IC50 [10]: 826; Ratio IC50 [11]: 759
Cn1nccc1[C@]1(CNC(=O)c2ccc(C(F)(F)F)c(F)c2-c2ccc(C(F)(F)F)cc2)NC(=O)NC1=O	–	8.00	–
Cn1nc(-c2ccccc2)cc1C1(CNC(=O)c2ccc(F)c(F)c2-c2ccc(C(F)(F)F)cc2)NC(=O)NC1=O (centres undefined)	1450	–	Ratio IC50 [7]: 12700; Ratio IC50 [8]: 41700; Ratio IC50 [9]: > 20800; Ratio IC50 [10]: 863; Ratio IC50 [4]: 26
COc1cccc(C(=O)NC[C@@]2(c3ccnn3C)NC(=O)NC2=O)c1-c1ccc(C(F)(F)F)cc1	–	7.54	–
Cc1cn(-c2ccccc2)nc1C1(CNC(=O)c2ccc(F)c(F)c2-c2ccc(C(F)(F)F)cc2)NC(=O)NC1=O (centres undefined)	–	8.10	Ratio IC50 [4]: 14
Cc1c(C2(CNC(=O)c3ccccc3-c3ccc(C(F)(F)F)cc3)NC(=O)NC2=O)cnn1C (centres undefined)	18	–	–
O=C1NC(=O)[C@](CNC(=O)c2cnn(-c3cccc(F)c3)n2)(C2CC2)N1	1.1	–	–

SMILES	Ratio IC50 [2]	pIC50 [3]	other results
Cc1sc(-c2ccccc2)nc1C1(CNC(=O)c2ccc(F)c(F)c2-c2ccc(C(F)(F)F)cc2)NC(=O)NC1=O (centres undefined)	–	7.33	Ratio IC50 [4]: 10
Cn1nccc1[C@]1(CNC(=O)c2ccccc2-c2ccc(C(F)(F)F)cc2)NC(=O)NC1=O	–	–	Activity [12]: 16.6 µM; Ratio IC50 [7]: 3220; Ratio IC50 [8]: 6390; Ratio IC50 [9]: 1440; Ratio IC50 [10]: 303; Ratio IC50 [4]: 1; Ratio IC50 [11]: 8320
Cn1nccc1[C@]1(CNC(=O)c2cccc(Cl)c2-c2ccc(C(F)(F)F)cc2)NC(=O)NC1=O	–	7.80	–
O=C1NC(=O)C(CNC(=O)c2ccccc2-c2ccc(C(F)(F)F)cc2)(c2ncsc2C(F)(F)F)N1 (centres undefined)	31	–	–
Cc1nc(C2(CNC(=O)c3ccccc3-c3ccc(C(F)(F)F)cc3)NC(=O)NC2=O)c(C)s1 (centres undefined)	36	7.82	–
Cn1cc(Cn2ncc(C(=O)NC[C@@]3(C4CC4)NC(=O)NC3=O)n2)cn1	29.4	6.07	–
O=C1NC(=O)[C@](CNC(=O)c2cnn(-c3ccc(F)cn3)n2)(C2CC2)N1	0.6	6.94	–
Cc1ccc(-c2cccc(C(=O)NC[C@@]3(C4CC4)NC(=O)NC3=O)c2)cc1	–	5.64	–
Cn1nccc1[C@]1(CNC(=O)c2c(F)cccc2-c2ccc(C(F)(F)F)cc2)NC(=O)NC1=O	–	7.10	–
O=C1NC(=O)[C@](CNC(=O)c2cnn(Cc3ccc(Cl)cc3)c2)(C2CC2)N1	7.4	6.55	–
Cn1nccc1[C@]1(CNC(=O)c2cccc(F)c2-c2ccc(C(F)(F)F)cc2)NC(=O)NC1=O	–	8.30	CL [1]: 12 mL/min/kg
O=C1NC(=O)[C@](CNC(=O)c2cnn(-c3ccccc3)c2)(C2CC2)N1	0.03	–	–
O=C1NC(=O)[C@](CNC(=O)c2cnn(-c3cnsc3)n2)(C2CC2)N1	0.2	–	–
Cc1ccc(-n2ncc(C(=O)NC[C@@]3(C4CC4)NC(=O)NC3=O)n2)cc1	0.1	–	–
Cc1sc(-c2cccnc2)nc1C1(CNC(=O)c2ccc(F)c(F)c2-c2ccc(C(F)(F)F)cc2)NC(=O)NC1=O (centres undefined)	–	8.05	Ratio IC50 [4]: 14
Cc1scnc1C1(CNC(=O)c2ccccc2-c2ccc(C(F)(F)F)cc2)NC(=O)NC1=O (centres undefined)	188	8.22	CL [1]: 20 mL/min/kg
Cc1nc(Cn2ncc(C(=O)NC[C@@]3(C4CC4)NC(=O)NC3=O)n2)cs1	33.5	6.03	–
O=C1NC(=O)[C@](CNC(=O)c2cnn(-c3ccc(Cl)cc3)n2)(C2CC2)N1	0.8	–	–
Cn1ccnc1C1(CNC(=O)c2ccccc2-c2ccc(C(F)(F)F)cc2)NC(=O)NC1=O (single isomer, unassigned)	450	8.52	Activity [12]: 0.6 µM; AUC [13]: 0.6 kg·h/L
